Reference: US20220154189A1, “COMPOSITIONS AND METHODS FOR THE TREATMENT OF KRAS ASSOCIATED DISEASES OR DISORDERS” (Dicerna Pharmaceuticals, Inc., priority 2019, published 2022)

Experiments:
[1] = test system: Pan02 tumors; assay: tumor growth inhibition, Pan02 tumors in C57BL/6 mice; assay type: in vivo, mouse
Protocol: (§1) 6 to 8 week old immunocompetent or immunocompromised mice (C57BL/6/Nude) were injected subcutaneously with 2×10^6 Pan02 (mouse pancreatic cell line) or 5×10^6 Panc1 (human pancreatic cell line) tumor cells under the right shoulder. Tumor volume was measured every 2-3 days a week to monitor tumor growth. Dosing was initiated when the tumors reached about 200 mm^3. For tumor growth inhibition studies, animals were randomized and assigned to different cohorts and subjected to dosing cycles. KRAS1-formulated LNP (“KRAS/LNP”) or Placebo (scrambled KRAS dsRNAi) formulated LNP was given intravenously via lateral tail vein at a total volume of 10 ml/kg. Immuno-modulatory agents (CSF1 antibody, TGF-β inhibitor, or checkpoint inhibitors) were given intraperitoneally or orally at a volume of 10 ml/kg. Trametinib (MEK inhibitor) was given orally at a total volume of 10 ml/kg.
(§2) Mouse pancreatic cell line Pan02 was obtained from NCI, and human pancreatic cell line Panc1 cells were obtained from ATCC (Manassas, Va.) and grown in RPMI/DMEM medium supplemented with 10% FBS. Pan02 is a murine PDAC cell line with KRAS G12D mutation. Panc1 is a human PDAC cell line with KRAS G1D mutation.
To see if the KRAS knockdown observed could be translated into growth inhibition, Pan02 tumors were implanted as described above, and when they reached the right sizes (e.g., about 200 mm^3), they were sorted and treated with KRAS/LNP or Placebo/LNP (cKras) at 10 mpk once a week for 3 weeks, and the tumor growth was monitored.

[2] = test system: KRAS mRNA; assay: in vitro screen of KRAS DsiRNA constructs, KRAS mRNA expression in MIA PaCa2 cells; assay type: cell-based, human; conditions: lipofectamine, 1 nM and 0.1 nM, 24 hours
Text: A nucleic acid inhibitor molecule that targets the KRAS gene (KRAS1) was constructed. First, several 25/27-mer KRAS DsiRNAs (with no modifications except for three methyls on the 3′ end of the guide strand) were selected. These constructs were then converted into a nicked-tetraloop format, using the U/GG convention as 22-mers, such that bases came off the guide strand starting from the 5′ end. These DsiRNAs were screened in human pancreatic carcinoma (MIA PaCa2) cells in vitro using lipofectamine at 1 nM and 0.1 nM concentrations of each construct to determine the potency.

[3] = test system: Pan02 tumors; assay: qPCR of tumor microenvironment and stromal activation marker mRNAs in Pan02 tumors; assay type: in vivo, mouse
Protocol: To see if a single KRAS/LNP treatment would lead to modulation of the tumor microenvironment, samples from the study described in Example 3 (FIGS. 5A-B) were analyzed for certain T-cell markers (CD8 and FoxP3) and chemokines (CXCL1). FoxP3 is a marker for immunosuppressive T cells (Tregs), which play an important role in regulating or suppressing other cells of the immune system. CXCL1 is a chemokine that actively recruits suppressive molecules such as Tregs and myeloid-derived suppressor cells to the tumor microenvironment.
To see if continuous KRAS inhibition would lead to modulation of the tumor microenvironment, Pan02 tumors from the efficacy study described in Example 3 (FIG. 6) were collected 24 hours after the last dose and subjected to qPCR to measure mRNAs of immune cell markers (CD8, FoxP3), immune suppressive cytokines (CXCL1, CXCL5, and IL10), immune checkpoints (PD-L1) or stromal activation markers (TGF-0, Axin2, ROBO1, and CSF3). […] This in turn led to down-regulation of several key suppressive molecules (FoxP3, CXCL1, and CXCL5). […]
A similar study was repeated in Pan02 tumors as well. […] In this case, tumors were collected and analyzed for the mRNA markers that contribute to modulation of the tumor microenvironment and stromal activation.

[4] = test system: Panc1 tumors; assay: tumor growth inhibition, human PDAC Panc1 tumors in nude mice; assay type: in vivo; conditions: gemcitabine 50 mpk, several rounds
Protocol: as §1
as §2, with “[…] mutation. […]” for “G1D mutation.”

[5] = test system: KRAS mRNA; assay: KRAS mRNA expression in mouse tumor models using MIA PaCa2 and LS411N tumor cells; assay type: in vivo, human; conditions: MIA PaCa 2 and LS411N tumor models, LNP-formulated tetraloops, 3 mg/kg daily for three days, 24 hours after
Protocol: FIG. 3B is a column scatter plot showing KRAS mRNA expression levels in a mouse tumor model using MIA PaCa2 tumor cells 24 hours after three-day daily administration of 3 mg/kg of KRAS nucleic acid inhibitor molecules as described in Example 1 and shown in FIG. 3A.
FIG. 3C is a column scatter plot showing KRAS mRNA expression levels in a mouse tumor model using MIA LS411N tumor cells 24 hours after three-day daily administration of 3 mg/kg of KRAS nucleic acid inhibitor molecules as described in Example 1 and shown in FIG. 3A.
The tetraloop sequences were tested in tumor models using MIA PaCa 2 and colon cancer LS411N cell lines. The best two from this screen (KRAS-465T and KRAS-446T) were then further modified to have a 4′-oxymethylphosphonate modification on the nucleotide at the 5′-end of the antisense strand (KRAS-465T/MOP and KRAS-446T/MOP). The sense strand of KRAS-465T/MOP contains SEQ ID NO: 13 (5′-[…]-3′), and the antisense strand of KRAS-465T/MOP contains SEQ ID NO: 14 (3′-[…]-5′, wherein underlining indicates a 4′-oxymethylphosphonate modification). The sense strand of KRAS-446T/MOP contains SEQ ID NO: 15 (5′-[…]-3′), and the antisense strand of KRAS-446T/MOP contains SEQ ID NO: 16 (3′-[…]-5′, wherein underlining indicates a 4′-oxymethylphosphonate modification).

[6] = test system: Cd274 (PD-L1) mRNA; assay: mRNA analysis of Cd274 (PD-L1) in Panc1 tumors; assay type: in vivo, human; conditions: MEKi+KRAS DsiRNA treatment
Protocol: (§3) To see how trametinib performed in human PDAC, Panc1 tumors were implanted as described above and treated with trametinib (3 mg/kg/dose) as shown in FIG. 12A. Tumor measurements were taken throughout the entire study period to monitor the tumor growth. […] Tumors were collected before and after KRAS/LNP treatments for mRNA analysis.

[7] = test system: Pan02 tumors; assay: FoxP3 and CD8 immunohistochemistry of Pan02 tumors; assay type: in vivo, mouse; conditions: KRAS DsiRNA combined with an MEK inhibitor
[8] = test system: KRAS; assay: mRNA analysis of KRAS in trametinib-resistant Panc1 tumors; assay type: in vivo, human; conditions: trametinib-resistant Panc1 tumors after KRAS/LNP 5 mpk (qdx3), compared to resistant tumors without KRAS/LNP
Protocol: as §3

[9] = Pan02 tumors, gemcitabine treatment without KRAS/LNP
[10] = Pan02 tumors, continuous KRAS inhibition (10 mpk weekly x3), 24 hours after last dose
[11] = Pan02 tumors, single KRAS/LNP treatment 10 mg/kg, 24 hours after last dose

Compound: Cc1cccc(-c2nn3c(c2-c2ccnc4ccc(C(N)=O)cc24)CCC3)n1 [galunisertib]
- tumor growth inhibition ([1]; orally 75 mpk (BID×2/cycle) for 2 weeks, vs Vehicle): about 50%

Compound: KRAS-465: 25/27-mer KRAS DsiRNA; sense strand SEQ ID NO: 3, antisense strand SEQ ID NO: 4 (sense CUAAAUCAUUUGAAGAUAUUCACCA; antisense UGGUGAAUAUCUUCAAAUGAUUUAGUA; Dicer-substrate siRNA, chemical modification pattern not given here)
- KRAS mRNA expression, ranking of potency in the in vitro screen [2]: best three

Compound: KRAS-446: 25/27-mer KRAS DsiRNA; sense strand SEQ ID NO: 5, antisense strand SEQ ID NO: 6 (sense GUAUUUGCCAUAAAUAAUACUAAAT; antisense AUUUAGUAUUAUUUAUGGCAAAUACAC; Dicer-substrate siRNA, chemical modification pattern not given here)
- KRAS mRNA expression, ranking of potency in the in vitro screen [2]: best three

Compound: Nc1ccn([C@@H]2O[C@H](CO)[C@@H](O)C2(F)F)c(=O)n1 [gemcitabine, reference compound]
- CXCL1 mRNA levels ([3]; Pan02 tumors treated with gemcitabine until resistant): increased
- Axin2 mRNA (stromal activation marker) [3, 9]: lower
- ROBO1 mRNA (stromal activation marker) [3, 9]: lower
- TGF-β mRNA (stromal activation marker) [3, 9]: lower
- tumor growth, response to treatment ([1]; continuous gemcitabine treatment): became resistant
- tumor growth, response to treatment [4]: responded nicely at the beginning, they became resistant after several rounds of treatment

Compound: KRAS-465T: KRAS tetraloop construct; sense strand SEQ ID NO: 13, antisense strand SEQ ID NO: 18 (sense CUAAAUCAUUUGAAGAUAUAGCAGCCGAAAGGCUGC; antisense UAUAUCUUCAAAUGAUUUAGGG; sense strand forms tetraloop hairpin, modification pattern not given here)
- KRAS mRNA expression, ranking in the tumor model screen [5]: best two

Compound: KRAS-194: 25/27-mer KRAS DsiRNA; sense strand SEQ ID NO: 1, antisense strand SEQ ID NO: 2 (sense GGCCUGCUGAAAAUGACUGAAUATA; antisense UAUAUUCAGUCAUUUUCAGCAGGCCUC; Dicer-substrate siRNA, chemical modification pattern not given here)
- KRAS mRNA expression, ranking of potency in the in vitro screen [2]: best three

Compound: KRAS-446T: KRAS tetraloop construct; sense strand SEQ ID NO: 15, antisense strand SEQ ID NO: 19 (sense GUAUUUGCCAUAAAUAAUAAGCAGCCGAAAGGCUGC; antisense UUAUUAUUUAUGGCAAAUACGG; sense strand forms tetraloop hairpin, modification pattern not given here)
- KRAS mRNA expression, ranking in the tumor model screen [5]: best two

Compound: KRAS1: tetraloop construct with 4′-oxymethylphosphonate at nucleotide 1 of the antisense strand; sense SEQ ID NO: 13, antisense SEQ ID NO: 14 (sense CUAAAUCAUUUGAAGAUAUAGCAGCCGAAAGGCUGC; antisense NAUAUCUUCAAAUGAUUUAGGG; tetraloop DsiRNA, 4'-oxymethylphosphonate on antisense 5'-terminal U, other modifications not given here)
- Axin2 mRNA (stromal activation marker) [3, 10]: slightly increased
- CSF3 mRNA (stromal activation marker) [3, 10]: slightly increased
- CXCL1 mRNA [3, 10]: down-regulation
- CXCL5 mRNA [3, 10]: down-regulation
- Cd8 mRNA [3, 10]: increased
- Cd274 (PD-L1) mRNA [3, 10]: increased
- FoxP3 mRNA [3, 10]: down-regulation
- ROBO1 mRNA (stromal activation marker) [3, 10]: slightly increased
- TGF-0 mRNA (stromal activation marker) [3, 10]: slightly increased
- CD8 mRNA expression level [3, 11]: unchanged
- CXCL1 mRNA expression level [3, 11]: significantly decreased
- FoxP3 mRNA expression level [3, 11]: significantly decreased
- CXCL1 mRNA levels ([3]; gemcitabine-resistant Pan02 tumors, single KRAS1 treatment): not brought down to baseline
- Cd274 (PD-L1) mRNA levels [6]: increased
- tumor growth ([1]; 10 mpk once a week for 3 weeks, i.v., vs Placebo/LNP): complete growth inhibition
- CD8 expression by immunohistochemistry [7]: increased
- FoxP3 expression by immunohistochemistry [7]: reduced
- KRAS knockdown [8]: 40-50%
